These results are taken from the NIST ThermoML archive (doi:10.1016/j.fluid.2005.02.014).

The conditions of this data set: Liquid; for mass density: 298.15 K, 101.33 kPa.

± gives the expanded uncertainty stated by the source.

For orientation: mass density means the mass of a sample divided by its volume. `CC(C)CCl` [1-chloro-2-methylpropane]: the mass density stood at 870.94 ± 0.99 kg/m3 and the Normal boiling temperature is 68.90 ± 0.26 °C.

Regarding `CCCCCl` [1-chlorobutane], the mass density worked out at 880.67 ± 0.6 kg/m3 and the Normal boiling temperature was 78.37 ± 0.26 °C.

For the compound `CC(C)(C)Cl` [2-chloro-2-methylpropane], the mass density amounted to 836.45 ± 0.65 kg/m3 and the Normal boiling temperature stood at 50.73 ± 0.26 °C.

On to `CCC(C)Cl` (stereo not given) [2-chlorobutane], for which the mass density was 867.26 ± 0.62 kg/m3 and the Normal boiling temperature amounted to 68.11 ± 0.26 °C.

Regarding `C1CCOCC1` [tetrahydropyran], the Normal boiling temperature came out at 88.08 ± 0.26 °C. Besides, the mass density (Vibrating tube method) was found to be 878.8 ± 0.5 kg/m3.
